Entries after “also recorded” stand apart in the source; their conditions may differ. Read-outs that look alike come from different tables or passages of the source.
Experiments:
[1] = male, human, in vivo
Procedure: (§1) Pharmacokinetics: Serial blood, urine, and feces were collected at specified times following dosing.
(§2) All samples collected for radioactivity analysis were analyzed for total radioactivity.
Blood samples (4 mL) for whole blood analysis of total radioactivity were collected within 15 minutes pre-dose and at 1, 2, 4, 8, 14, 24, and 72 hours post-dose. Prior to study initiation, the Celerion Scintillation Laboratory supplied to the Celerion clinic complete written instructions for collection, handling, and processing of samples. Samples collected were used to determine the percentage of radioactivity associated with erythrocytes in whole blood over time (calculated only for time points that whole blood was collected).
Individual dosing containers (including the dosage form) were analyzed pre-dose and post-dose for radioactivity, with the (post-dose−pre-dose) difference being the administered dose. Whole blood, plasma, urine, feces, and emesis (if applicable) were analyzed for radioactivity content by liquid scintillation counting procedures. Whole blood and fecal samples were dried and oxidized prior to counting. Detailed reports of scintillation counting method and results for total radioactivity accompany the clinical study report. […]
The Cmax and time to peak concentration (tmax) were directly determined from the observed blood/plasma concentrations data. […]

[2] = Plasma pharmacokinetics of XL184 and metabolites by LC/MS/MS method; settings: human, in vivo
Procedure: as §1, §2
Detailed reports of the bioanalytical methodologies and results accompany the clinical study report.
The other minor metabolite in plasma, p-Fluoroaniline, was analyzed by Exelixis using a validated LC/MS/MS method.
PK variables were computed using WinNonlin Professional, version 5.2.

[3] = cited from earlier work; for CL/F / t1/2 / Tmax / Cmax: single oral 140 mg FBE; for CL/F / t1/2 / Cmax: mean ± CV %; for Tmax: median (minimum, maximum); for Cmax: plasma, n = 72
[4] = Safety evaluation (AEs, vital signs, ECG, laboratory tests) in Phase 1 mass balance study; type: in vivo, human
Procedure: Safety: Safety evaluations included assessments of AEs, vital signs, electrocardiogram (ECG), laboratory tests, and concomitant medications. Adverse event seriousness, severity grade, and relationship to study treatment were assessed by the investigator. Severity grade was defined by the National Cancer Institute Common Terminology Criteria for Adverse Events (CTCAE) version 4.0.
Adverse event terms were standardized using the Medical Dictionary for Regulatory Activities and tabulated by system organ class and preferred term.

[5] = po, 175 mg, Plasma concentration of XL184 by LC/MS/MS, single 175 mg oral XL184 L-malate, healthy male subjects, […], individual subject

## COc1cc2nccc(Oc3ccc(NC(=O)C4(C(=O)Nc5ccc(F)cc5)CC4)cc3)c2cc1OC [XL184, N-(4-{[6,7-bis(methyloxy)quinolin-4-yl]oxy}phenyl)-N′-(4-fluorophenyl)cyclopropane-1,1-dicarboxamide]
[1]
  kel of total radioactivity: 0.00308 h⁻¹
[2]; po, 175 mg, Plasma Concentrations of XL184 by LC/MS/MS Method, single 175 mg oral dose, Min (N=8)
  concentration at 8 h: 267 ng/mL
[2]; po, 175 mg, Plasma Concentrations of XL184 by LC/MS/MS Method, single 175 mg oral dose, individual subjects
  concentration at 8 h: 532 ng/mL
[2]; po, 175 mg, Plasma Concentrations of XL184 by LC/MS/MS Method, 14.00 h, single 175 mg oral dose, individual subjects
  concentration at 14 h: 488 ng/mL
[2]; [5]
  concentration at 48 h: 352 ng/mL
  concentration at 120 h: 156 ng/mL
[2]; male
  AUC0-24: 14300 ± 2600 (18) h · ng/mL
  AUC0-72: 35000 ± 6770 (19) h · ng/mL
  AUC0-inf: 68000 ± 6910 (10) h · ng/mL
  AUC0-t: 67200 ± 6880 (10) h · ng/mL
  Tmax: 1.49 (1.00, 3.00) h
[2]; male, Tmax
  Tmax: ~1.49 h
[2]; male, po, 175 mg, AUC0-24
  AUC0-t: 17600 ng·h/mL
[2]; male, po, 175 mg, AUC0-72
  AUC0-t: 46800 ng·h/mL
[2]; male, po, 175 mg, AUC0-inf
  AUC0-inf: 73100 ng·h/mL
[2]; male, po, 175 mg, AUC0-t
  AUC0-t: 72900 ng·h/mL
[2]; male, po, 175 mg, Cmax
  Cmax: 1250 ng/mL
[2]; male, po, 175 mg, t1/2
  half-life: 69 h
[3]; 20 mg (FBE) tablet strength
  % CV of Cmax, AUC0-t, and AUC0-inf: 48-72%
[3]; 40 mg (FBE) tablet strength
  % CV of Cmax, AUC0-t, and AUC0-inf: 42-56%
[3]; 60 mg (FBE) tablet strength
  % CV of Cmax, AUC0-t, and AUC0-inf: 38-41%
[3]; 140 mg (FBE) capsule
  % CV of AUC0-inf: ~39%
  % CV of AUC0-t: ~37%
  % CV of Cmax: ~43%
[3]; 140 mg (FBE) tablet
  % CV of AUC0-inf: ~46%
  % CV of AUC0-t: ~44%
  % CV of Cmax: about 54%
[3]; capsule formulation
  CL/F: 2.69 ± 32 L/h
  t1/2: 112 ± 26 h
  Tmax: 4.00 (2.00, 5.04) h
  Cmax: 554 ± 43 ng/mL
[3]; tablet formulation
  CL/F: 2.61 ± 49 L/h
  t1/2: 115 ± 31 h
  Tmax: 3.49 (1.99, 24.00) h
  Cmax: 702 ± 54 ng/mL
[4]; 8 subjects
  Total number of TEAEs: 36
[4]; 31/36
  TEAEs resolved within 1 to 3 days: 86%
[4]; CTCAE version 4.0
  Severity of one event of treatment related dizziness: moderate (CTCAE grade 2)
  Severity of the majority of TEAEs: mild in severity (CTCAE grade 1)
[4]; changes from baseline
  Laboratory values: no clinically significant changes from baseline in any laboratory values; also recorded: no notable clinical laboratory findings
[4]; five subjects
  Subjects reporting TEAEs assessed as related to the study treatment: 62.5%
[4]; in vivo
  Vital signs and ECG evaluations: No remarkable on study results were noted
[4]; single 175 mg oral dose
  Tolerability: well tolerated
[4]; single 175 mg oral dose, 8 healthy male subjects
  Deaths, SAEs, discontinuations due to AEs, other significant AEs: no deaths, other SAEs, discontinuations due to AEs, or other significant AEs
[4]; six of 8 subjects
  Subjects reporting TEAEs: 75%
[4]; three subjects
  Subjects reporting flatulence: 37.5%
  Subjects reporting headache: 37.5%
[4]; within 4 hours of dosing
  Vomiting after dosing: No subject vomited within 4 hours of dosing

Reference: patent US11504362B2, “Liquid dosage forms to treat cancer” (Exelixis, Inc., priority 2017, dated 2022)
